Tests used:
Type in all cases: physicochemical
[1] = HPLC potency of the isolated amorphous material, before and after drying
Protocol: For High Pressure Liquid Chromatography (HPLC), the sample isolated by evaporating methanol was analyzed by HPLC for potency. […] By careful drying at lower temperatures, the potency loss could be alleviated.
For the HPLC analysis, the sample isolated by evaporating methanol was analyzed by HPLC for potency. […] When the sample was re-analyzed after drying in the TGA at 25° C. or 70° C., the potency remained at 99 wt %. Therefore, the presence of Eudragit EPO improved the stability of the amorphous phase.

[2] = Physical stability of the amorphous material isolated by evaporating a methanolic solution
Description: Amorphous Cefdinir was isolated by evaporating a methanolic solution.
Stable amorphous Cefdinir with Eudragit EPO was made and isolated by evaporating a methanolic solution.
Amorphous cefdinir with PVP was made and isolated by evaporating a methanolic solution.

[3] = Thermogravimetric analysis (TGA), onset of degradation on heating; details: heated at 10° C./min from 25° C.
Protocol: Thermogravimetric analysis (TGA) was performed in TA Instruments TG2950 (TA Instruments, New Castle, Del.). The samples were scanned at 10° C./minute with a dry nitrogen purge at 60 mL/minute.
For TGA analysis, the sample was heated at 10° C./min from 25° C. to 150° C. The air dried amorphous material contained about 5 wt % residual solvent. Since the TGA data also indicated degradation begins at 90° C., the residual solvent can be removed by holding the sample in the TGA for 1 hour at 25° C. (FIG. 5). At the end of the hour, the weight reached a constant value and the sample had lost 5% of its weight.
For the TGA analysis, the sample was heated at 10° C./min from 25° C. to 150° C. The air dried amorphous material contained some (˜10 wt %) residual methanol (FIG. 10). […] (FIG. 11). At the end of the hour, the weight reached a constant value and the sample had lost 10% of its weight.
For the TGA analysis, the sample was heated at 10° C./min from 25° C. to 200° C. The air dried amorphous material contained some (˜7 wt %) residual methanol. […] (FIG. 16). At the end of the hour, the weight reached a constant value and the sample had lost 7% of its weight.

C=CC1=C(C(=O)O)N2C(=O)C(NC(=O)C(=NO)c3csc(N)n3)[C@H]2SC1 (single isomer, unassigned) [Amorphous Cefdinir, 7-[2-(2-aminothiazol-4-yl)-2-hydroxyiminoacetamide]-3-vinyl-3-cephem-4-carboxylic acid (syn isomer)]
potency by HPLC after drying ([1]; reanalyzed after drying in the TGA at 25° C. or 70° C.): 93%
potency by HPLC ([1]; sample isolated by evaporating methanol, after accounting for residual solvent): 98%
physical stability [2]: physically stable
temperature at which degradation begins (TGA) [3]: 90 °C
